The source made the active and inactive calls. The calls are words filed in the database; no cut-off is given here.
Tests used:
[1] = biological target: T1, Hepatocyte growth factor receptor (Homo sapiens, UniProt P08581); test: Inhibition of c-MET (unknown origin)
[2] = biological target: T1, Hepatocyte growth factor receptor; test: Inhibition of c-MET (unknown origin) at 1 uM after 60 mins by ELISA
[3] = Antiproliferative activity in human EBC1 cells overexpressing c-MET after 72 hrs by sulforhodamine B assay; format: functional, cell-based; details: EBC-1, 72 h
[4] = biological target: Receptor tyrosine-protein kinase erbB-2 (Homo sapiens, UniProt P04626); test: Inhibition of ERBB2 (unknown origin)
Chain of Receptor tyrosine-protein kinase erbB-2 (P04626 whole entry): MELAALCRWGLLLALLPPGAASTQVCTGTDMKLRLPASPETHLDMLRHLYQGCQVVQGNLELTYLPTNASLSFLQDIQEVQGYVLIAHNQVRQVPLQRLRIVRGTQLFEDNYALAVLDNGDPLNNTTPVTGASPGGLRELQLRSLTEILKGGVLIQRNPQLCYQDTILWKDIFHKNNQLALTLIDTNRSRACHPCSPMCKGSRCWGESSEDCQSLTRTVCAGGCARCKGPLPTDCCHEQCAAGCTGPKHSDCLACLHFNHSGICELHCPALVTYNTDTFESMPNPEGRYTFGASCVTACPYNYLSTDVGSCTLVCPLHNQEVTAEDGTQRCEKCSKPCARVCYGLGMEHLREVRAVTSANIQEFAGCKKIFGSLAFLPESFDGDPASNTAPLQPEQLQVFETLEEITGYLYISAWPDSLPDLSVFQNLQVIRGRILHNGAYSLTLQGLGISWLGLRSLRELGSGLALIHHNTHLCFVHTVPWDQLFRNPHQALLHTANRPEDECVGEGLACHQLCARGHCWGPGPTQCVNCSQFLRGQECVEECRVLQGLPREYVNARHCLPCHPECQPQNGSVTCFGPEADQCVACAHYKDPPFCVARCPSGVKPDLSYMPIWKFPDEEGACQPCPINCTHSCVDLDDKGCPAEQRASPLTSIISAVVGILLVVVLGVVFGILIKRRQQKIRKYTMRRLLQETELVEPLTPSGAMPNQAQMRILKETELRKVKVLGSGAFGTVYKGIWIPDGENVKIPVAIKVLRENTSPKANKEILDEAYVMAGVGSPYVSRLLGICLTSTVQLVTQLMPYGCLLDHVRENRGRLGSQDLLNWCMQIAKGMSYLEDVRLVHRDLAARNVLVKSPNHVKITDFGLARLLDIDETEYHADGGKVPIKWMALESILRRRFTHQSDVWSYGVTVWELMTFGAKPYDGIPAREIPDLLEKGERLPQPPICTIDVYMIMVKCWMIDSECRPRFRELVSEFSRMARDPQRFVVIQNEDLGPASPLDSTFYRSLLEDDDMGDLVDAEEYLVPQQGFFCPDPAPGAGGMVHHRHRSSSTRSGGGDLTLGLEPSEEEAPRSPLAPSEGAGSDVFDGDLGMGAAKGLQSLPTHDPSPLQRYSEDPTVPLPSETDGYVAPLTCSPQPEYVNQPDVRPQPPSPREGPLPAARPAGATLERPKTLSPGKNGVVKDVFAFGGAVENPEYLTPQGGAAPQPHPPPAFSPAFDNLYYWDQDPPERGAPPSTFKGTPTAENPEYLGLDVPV

[5] = biological target: Vascular endothelial growth factor receptor 2 (Homo sapiens, UniProt P35968); test: Inhibition of KDR (unknown origin)
Chain of Vascular endothelial growth factor receptor 2 (P35968 whole entry): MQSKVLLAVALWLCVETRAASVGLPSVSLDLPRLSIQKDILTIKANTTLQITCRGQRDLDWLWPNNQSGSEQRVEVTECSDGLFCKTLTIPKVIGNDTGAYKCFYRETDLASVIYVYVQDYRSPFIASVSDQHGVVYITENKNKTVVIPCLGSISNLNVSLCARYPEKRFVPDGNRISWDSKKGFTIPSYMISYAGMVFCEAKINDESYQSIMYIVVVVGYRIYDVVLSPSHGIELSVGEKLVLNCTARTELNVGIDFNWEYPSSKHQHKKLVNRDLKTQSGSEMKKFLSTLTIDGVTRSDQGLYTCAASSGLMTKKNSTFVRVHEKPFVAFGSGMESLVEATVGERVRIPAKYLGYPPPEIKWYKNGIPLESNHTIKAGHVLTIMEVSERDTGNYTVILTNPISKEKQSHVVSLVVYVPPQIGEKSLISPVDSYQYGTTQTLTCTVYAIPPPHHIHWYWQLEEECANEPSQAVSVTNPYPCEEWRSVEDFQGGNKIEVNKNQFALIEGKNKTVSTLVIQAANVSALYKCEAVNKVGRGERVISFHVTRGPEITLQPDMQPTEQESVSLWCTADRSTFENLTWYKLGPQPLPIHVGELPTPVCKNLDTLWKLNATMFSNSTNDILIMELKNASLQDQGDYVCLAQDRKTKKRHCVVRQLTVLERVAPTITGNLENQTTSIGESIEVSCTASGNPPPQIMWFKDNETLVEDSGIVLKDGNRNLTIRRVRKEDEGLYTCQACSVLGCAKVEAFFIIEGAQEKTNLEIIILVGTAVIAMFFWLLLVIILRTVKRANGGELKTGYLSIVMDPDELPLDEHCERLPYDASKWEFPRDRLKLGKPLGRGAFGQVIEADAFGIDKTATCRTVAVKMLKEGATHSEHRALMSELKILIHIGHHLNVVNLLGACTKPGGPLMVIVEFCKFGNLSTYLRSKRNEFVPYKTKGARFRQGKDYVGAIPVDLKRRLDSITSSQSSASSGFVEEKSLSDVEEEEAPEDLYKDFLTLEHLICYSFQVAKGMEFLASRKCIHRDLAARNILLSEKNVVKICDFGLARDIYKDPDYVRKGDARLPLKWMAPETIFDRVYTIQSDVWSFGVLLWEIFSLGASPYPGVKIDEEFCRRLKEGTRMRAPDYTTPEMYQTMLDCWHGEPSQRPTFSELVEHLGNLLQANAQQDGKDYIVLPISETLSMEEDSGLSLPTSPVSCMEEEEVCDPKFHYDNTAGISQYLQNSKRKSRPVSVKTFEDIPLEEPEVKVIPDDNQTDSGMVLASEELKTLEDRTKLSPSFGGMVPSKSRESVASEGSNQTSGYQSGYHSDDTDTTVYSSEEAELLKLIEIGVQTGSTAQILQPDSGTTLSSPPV

[6] = biological target: Proto-oncogene tyrosine-protein kinase receptor Ret (Homo sapiens, UniProt P07949); test: Inhibition of RET (unknown origin)
[7] = biological target: Vascular endothelial growth factor receptor 1 (Homo sapiens, UniProt P17948); test: Inhibition of FLT1 (unknown origin)
[8] = biological target: Fibroblast growth factor receptor 1 (Homo sapiens, UniProt P11362); test: Inhibition of FGFR1 (unknown origin)
Chain of Fibroblast growth factor receptor 1 (P11362 whole entry): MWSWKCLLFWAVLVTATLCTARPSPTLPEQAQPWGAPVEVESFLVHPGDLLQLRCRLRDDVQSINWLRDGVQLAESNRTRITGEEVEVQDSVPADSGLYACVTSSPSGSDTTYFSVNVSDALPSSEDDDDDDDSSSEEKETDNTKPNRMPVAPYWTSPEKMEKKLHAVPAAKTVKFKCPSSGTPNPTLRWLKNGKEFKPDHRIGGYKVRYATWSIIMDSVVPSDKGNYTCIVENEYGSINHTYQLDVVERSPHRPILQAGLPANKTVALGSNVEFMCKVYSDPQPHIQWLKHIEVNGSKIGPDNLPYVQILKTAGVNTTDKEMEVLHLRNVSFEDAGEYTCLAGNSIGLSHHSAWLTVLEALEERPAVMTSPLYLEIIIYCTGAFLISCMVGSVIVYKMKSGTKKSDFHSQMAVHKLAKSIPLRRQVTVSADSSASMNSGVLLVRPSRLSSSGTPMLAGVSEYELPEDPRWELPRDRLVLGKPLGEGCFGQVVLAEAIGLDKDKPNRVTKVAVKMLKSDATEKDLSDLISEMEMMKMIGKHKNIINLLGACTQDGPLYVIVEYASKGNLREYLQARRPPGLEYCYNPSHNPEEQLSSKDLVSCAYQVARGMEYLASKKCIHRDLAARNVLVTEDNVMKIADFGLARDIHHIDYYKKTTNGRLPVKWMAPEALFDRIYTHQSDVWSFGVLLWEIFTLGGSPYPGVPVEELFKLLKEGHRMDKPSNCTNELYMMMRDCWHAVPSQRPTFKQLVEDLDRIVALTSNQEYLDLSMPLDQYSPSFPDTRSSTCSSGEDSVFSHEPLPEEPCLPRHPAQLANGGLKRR

[9] = biological target: Tyrosine-protein kinase ABL1 (Homo sapiens, UniProt P00519); test: Inhibition of ABL (unknown origin)
[10] = biological target: Platelet-derived growth factor receptor alpha (Homo sapiens, UniProt P16234); test: Inhibition of PDGFRalpha (unknown origin)
[11] = biological target: Epidermal growth factor receptor (Homo sapiens, UniProt P00533); test: Inhibition of EGFR (unknown origin)
[12] = biological target: Receptor tyrosine-protein kinase erbB-4 (Homo sapiens, UniProt Q15303); test: Inhibition of ERBB4 (unknown origin)
[13] = biological target: Epidermal growth factor receptor (Homo sapiens, UniProt P00533, L858R/T790M); test: Inhibition of EGFR T790M/L858R double mutant (unknown origin); format: protein assay
[14] = biological target: Macrophage-stimulating protein receptor (Homo sapiens, UniProt Q04912); test: Inhibition of RON (unknown origin)
[15] = biological target: T1, Hepatocyte growth factor receptor; test: Inhibition of c-MET (unknown origin) after 60 mins by ELISA
[16] = biological target: T2, Tyrosine-protein kinase receptor TYRO3 (Homo sapiens, UniProt Q06418); test: Inhibition of TYRO3 (unknown origin)
T2 sequence (Q06418 whole entry): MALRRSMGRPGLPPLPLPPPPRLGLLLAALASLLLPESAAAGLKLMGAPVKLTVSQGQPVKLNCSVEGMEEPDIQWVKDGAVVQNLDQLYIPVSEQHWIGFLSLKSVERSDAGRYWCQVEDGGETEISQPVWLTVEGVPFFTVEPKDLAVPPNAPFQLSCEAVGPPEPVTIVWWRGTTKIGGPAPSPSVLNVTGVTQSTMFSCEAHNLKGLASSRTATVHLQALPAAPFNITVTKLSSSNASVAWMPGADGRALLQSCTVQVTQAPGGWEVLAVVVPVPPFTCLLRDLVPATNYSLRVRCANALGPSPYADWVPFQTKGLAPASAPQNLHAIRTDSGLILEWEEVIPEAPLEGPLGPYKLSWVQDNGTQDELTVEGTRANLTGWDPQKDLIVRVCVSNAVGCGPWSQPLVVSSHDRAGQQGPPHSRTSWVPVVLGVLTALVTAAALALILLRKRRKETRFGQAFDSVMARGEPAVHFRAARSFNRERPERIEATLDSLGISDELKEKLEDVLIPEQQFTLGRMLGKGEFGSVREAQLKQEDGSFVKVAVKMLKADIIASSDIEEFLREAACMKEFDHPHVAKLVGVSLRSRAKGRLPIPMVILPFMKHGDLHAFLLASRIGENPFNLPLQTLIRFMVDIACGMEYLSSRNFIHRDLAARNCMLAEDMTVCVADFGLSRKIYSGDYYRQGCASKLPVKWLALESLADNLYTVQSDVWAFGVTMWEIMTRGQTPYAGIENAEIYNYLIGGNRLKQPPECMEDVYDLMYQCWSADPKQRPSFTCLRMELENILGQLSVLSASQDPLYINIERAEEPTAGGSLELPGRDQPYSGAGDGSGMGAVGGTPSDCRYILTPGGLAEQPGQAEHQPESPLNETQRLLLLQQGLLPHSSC

[17] = biological target: T1, Hepatocyte growth factor receptor; test: Inhibition of c-MET (unknown origin) at 10 uM after 60 mins by ELISA relative to control

T1 sequence (P08581 whole entry): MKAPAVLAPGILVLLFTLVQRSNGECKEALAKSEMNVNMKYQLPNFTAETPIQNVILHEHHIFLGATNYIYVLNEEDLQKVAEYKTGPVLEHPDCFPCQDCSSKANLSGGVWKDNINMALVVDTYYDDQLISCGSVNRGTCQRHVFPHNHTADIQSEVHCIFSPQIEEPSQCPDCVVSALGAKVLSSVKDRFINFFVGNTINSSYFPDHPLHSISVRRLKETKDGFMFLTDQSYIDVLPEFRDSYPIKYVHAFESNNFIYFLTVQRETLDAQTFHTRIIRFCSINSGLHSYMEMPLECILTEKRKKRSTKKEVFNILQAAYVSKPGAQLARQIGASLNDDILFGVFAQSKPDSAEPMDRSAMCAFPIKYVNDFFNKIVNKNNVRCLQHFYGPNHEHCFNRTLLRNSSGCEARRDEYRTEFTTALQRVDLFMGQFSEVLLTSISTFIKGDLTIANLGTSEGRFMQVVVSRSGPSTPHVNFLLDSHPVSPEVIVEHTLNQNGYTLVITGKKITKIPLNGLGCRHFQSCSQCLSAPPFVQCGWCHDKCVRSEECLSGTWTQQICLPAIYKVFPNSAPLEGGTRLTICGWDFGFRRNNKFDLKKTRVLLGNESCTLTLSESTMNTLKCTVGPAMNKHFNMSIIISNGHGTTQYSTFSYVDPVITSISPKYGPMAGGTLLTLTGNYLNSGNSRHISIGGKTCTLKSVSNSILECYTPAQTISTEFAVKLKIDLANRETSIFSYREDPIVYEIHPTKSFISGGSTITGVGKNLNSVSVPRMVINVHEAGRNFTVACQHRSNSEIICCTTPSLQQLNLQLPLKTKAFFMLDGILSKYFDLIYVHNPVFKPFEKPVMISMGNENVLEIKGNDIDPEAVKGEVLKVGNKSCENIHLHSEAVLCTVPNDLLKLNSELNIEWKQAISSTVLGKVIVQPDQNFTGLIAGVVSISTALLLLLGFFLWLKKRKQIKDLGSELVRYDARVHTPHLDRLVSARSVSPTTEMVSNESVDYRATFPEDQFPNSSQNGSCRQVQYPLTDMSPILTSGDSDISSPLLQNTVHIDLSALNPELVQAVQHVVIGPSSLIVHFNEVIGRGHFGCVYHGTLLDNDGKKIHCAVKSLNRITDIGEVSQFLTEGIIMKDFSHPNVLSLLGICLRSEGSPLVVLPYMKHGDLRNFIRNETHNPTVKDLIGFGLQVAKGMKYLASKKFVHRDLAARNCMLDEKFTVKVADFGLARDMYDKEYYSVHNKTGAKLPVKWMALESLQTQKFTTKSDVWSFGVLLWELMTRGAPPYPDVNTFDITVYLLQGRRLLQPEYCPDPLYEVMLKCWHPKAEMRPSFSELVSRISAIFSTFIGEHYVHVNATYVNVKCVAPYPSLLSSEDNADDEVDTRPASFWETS

Work on C[C@@H](Oc1cc(C(=O)Nc2ccc(C(=O)N3CCN(C)CC3)cc2)nnc1N)c1c(Cl)ccc(F)c1Cl yielded an IC50 [1] of 0.00069 µM.

For CCN1CCN(c2ccc(NC(=O)c3cc(O[C@H](C)c4c(Cl)ccc(F)c4Cl)c[nH]c3=O)c(OC)c2)CC1, the inhibition [2] was “inactive”.

With C[C@@H](Oc1c[nH]c(=O)c(C(=O)Nc2ccc(OCCN3CCOCC3)cc2)c1)c1c(Cl)ccc(F)c1Cl the IC50 [3] was 5.9 µM.

With C[C@@H](Oc1c[nH]c(=O)c(C(=O)Nc2cnn(C3CCNCC3)c2)c1)c1c(Cl)ccc(F)c1Cl the IC50 [3] was 1 µM.

With COc1ncc(O[C@H](C)c2c(Cl)ccc(F)c2Cl)cc1C(=O)Nc1ccc(N2CCN(C)CC2)cc1 the inhibition [2] was “inactive”.

Work on C[C@@H](Oc1c[nH]c(=O)c(C(=O)Nc2ccc3c(c2)CN(CCN(C)C)C3=O)c1)c1c(Cl)ccc(F)c1Cl yielded an IC50 [3] of 2.6 µM.

For C[C@@H](Oc1c[nH]c(=O)c(C(=O)Nc2cnn(C)c2)c1)c1c(Cl)ccc(F)c1Cl, the IC50 [3] was 9.8 µM.

C[C@@H](Oc1c[nH]c(=O)c(C(=O)Nc2ccc(N3CCN(C)CC3)cc2)c1)c1c(Cl)ccc(F)c1Cl gave an IC50 [4] of over 1 µM, an IC50 [5] of over 1 µM and an IC50 [6] of over 1 µM. It also gave an IC50 [3] of 2.2 µM, an IC50 [7] of over 1 µM and an IC50 [8] of over 1 µM. It also gave an IC50 [9] of 0.281 µM, an IC50 [10] of over 1 µM and an IC50 [11] of over 1 µM. It also gave an IC50 [12] of over 1 µM, an IC50 [13] of over 1 µM and an IC50 [14] of 0.446 µM. The IC50 [15] was 0.012 µM and the IC50 [16] was over 1 µM.

Work on C[C@@H](Oc1c[nH]c(=O)c(C(=O)NCc2ccc(NS(C)(=O)=O)cc2)c1)c1c(Cl)ccc(F)c1Cl yielded an inhibition [17] of under 50%.

Molecule C[C@@H](Oc1c[nH]c(=O)c(C(=O)NCc2ccc(N3CCOCC3)cc2)c1)c1c(Cl)ccc(F)c1Cl has an inhibition [17] of under 50%.

Work on C[C@@H](Oc1c[nH]c(=O)c(C(=O)Nc2cnn(CCO)c2)c1)c1c(Cl)ccc(F)c1Cl yielded an IC50 [3] of 1.1 µM.

C[C@@H](Oc1c[nH]c(=O)c(C(=O)NC2CCN(C)CC2)c1)c1c(Cl)ccc(F)c1Cl showed an inhibition [17] of under 50%.

C[C@@H](Oc1c[nH]c(=O)c(C(=O)Nc2ccc(N3CCN(C)CC3)nc2)c1)c1c(Cl)ccc(F)c1Cl showed an IC50 [3] of 3.9 µM.

Work on C[C@@H](Oc1c[nH]c(=O)c(C(=O)Nc2ccc(CN3CCN(C)CC3)cc2)c1)c1c(Cl)ccc(F)c1Cl yielded an IC50 [3] of 1.1 µM.

Reference: ChEMBL document CHEMBL2375342, “Novel 5-(benzyloxy)pyridin-2(1H)-one derivatives as potent c-Met inhibitors” (Bioorg Med Chem Lett, 2013)
